Data published in PubChem BioAssay (NCI).
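Each compound was tested at five concentrations against cells in 96-well plates for 48 hours. GI50 marks 50% less growth. TGI marks complete inhibition of growth.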

Legend:
Assay in all cases: NCI-60 cell line screen, 48 h
786-0 renal = test system: 786-0 renal
A498 renal = test system: A498 renal
A549 NSCLC = test system: A549 NSCLC
ACHN renal = test system: ACHN renal
BT-549 breast = test system: BT-549 breast
CAKI-1 renal = test system: CAKI-1 renal
CCRF-CEM leukemia = test system: CCRF-CEM leukemia
COLO 205 colon = test system: COLO 205 colon
DU-145 prostate = test system: DU-145 prostate
EKVX NSCLC = test system: EKVX NSCLC
HCC-2998 colon = test system: HCC-2998 colon
HCT-116 colon = test system: HCT-116 colon
HCT-15 colon = test system: HCT-15 colon
HL-60(TB) leukemia = test system: HL-60(TB) leukemia
HOP-62 NSCLC = test system: HOP-62 NSCLC
HOP-92 NSCLC = test system: HOP-92 NSCLC
HS 578T breast = test system: HS 578T breast
HT29 colon = test system: HT29 colon
IGROV1 ovarian = test system: IGROV1 ovarian
K-562 leukemia = test system: K-562 leukemia
KM12 colon = test system: KM12 colon
LOX IMVI melanoma = test system: LOX IMVI melanoma
M14 melanoma = test system: M14 melanoma
MALME-3M melanoma = test system: MALME-3M melanoma
MCF7 breast = test system: MCF7 breast
MDA-MB-231 breast = test system: MDA-MB-231 breast
MDA-MB-435 = test system: MDA-MB-435
MOLT-4 leukemia = test system: MOLT-4 leukemia
NCI-H226 lung = test system: NCI-H226 lung
NCI-H460 lung = test system: NCI-H460 lung
NCI-H522 lung = test system: NCI-H522 lung
NCI/ADR-RES ovarian = test system: NCI/ADR-RES ovarian
OVCAR-4 ovarian = test system: OVCAR-4 ovarian
OVCAR-5 ovarian = test system: OVCAR-5 ovarian
OVCAR-8 ovarian = test system: OVCAR-8 ovarian
PC-3 prostate = test system: PC-3 prostate
RPMI-8226 leukemia = test system: RPMI-8226 leukemia
RXF 393 renal = test system: RXF 393 renal
SF-268 CNS = test system: SF-268 CNS
SF-295 CNS = test system: SF-295 CNS
SF-539 CNS = test system: SF-539 CNS
SK-MEL-2 melanoma = test system: SK-MEL-2 melanoma
SK-MEL-28 melanoma = test system: SK-MEL-28 melanoma
SK-MEL-5 melanoma = test system: SK-MEL-5 melanoma
SK-OV-3 ovarian = test system: SK-OV-3 ovarian
SN12C renal = test system: SN12C renal
SNB-19 CNS = test system: SNB-19 CNS
SNB-75 CNS = test system: SNB-75 CNS
SR leukemia = test system: SR leukemia
SW-620 colon = test system: SW-620 colon
T-47D breast = test system: T-47D breast
TK-10 renal = test system: TK-10 renal
U251 CNS = test system: U251 CNS
UACC-257 melanoma = test system: UACC-257 melanoma
UACC-62 melanoma = test system: UACC-62 melanoma
UO-31 renal = test system: UO-31 renal

What does the source list for `CNC(=O)c1cc(N2CCc3cc(NC(=O)Nc4ccc(N5CCOCC5)c(C(F)(F)F)c4)ccc32)ccn1`?
GI50 (786-0 renal): 1440 nM; TGI (786-0 renal): 18900 nM; GI50 (A498 renal): 1690 nM; TGI (A498 renal): 25100 nM; GI50 (A549 NSCLC): 1620 nM; TGI (A549 NSCLC): > 33300 nM; GI50 (ACHN renal): 1900 nM; TGI (ACHN renal): > 33300 nM; GI50 (BT-549 breast): 1040 nM; TGI (BT-549 breast): 2750 nM; GI50 (CAKI-1 renal): 3840 nM; TGI (CAKI-1 renal): > 33300 nM; GI50 (CCRF-CEM leukemia): 1470 nM; TGI (CCRF-CEM leukemia): > 33300 nM; GI50 (COLO 205 colon): 1150 nM; TGI (COLO 205 colon): 22000 nM; GI50 (DU-145 prostate): 3040 nM; TGI (DU-145 prostate): > 33300 nM; GI50 (EKVX NSCLC): 4160 nM; TGI (EKVX NSCLC): > 33300 nM; GI50 (HCC-2998 colon): 2510 nM; TGI (HCC-2998 colon): > 33300 nM; GI50 (HCT-116 colon): 1170 nM; TGI (HCT-116 colon): 10500 nM; GI50 (HCT-15 colon): 1170 nM; TGI (HCT-15 colon): > 33300 nM; GI50 (HL-60(TB) leukemia): 904 nM; TGI (HL-60(TB) leukemia): 5500 nM; GI50 (HOP-62 NSCLC): 2560 nM; TGI (HOP-62 NSCLC): 25000 nM; GI50 (HOP-92 NSCLC): 899 nM; TGI (HOP-92 NSCLC): 5540 nM; GI50 (HS 578T breast): 779 nM; TGI (HS 578T breast): 2940 nM; GI50 (HT29 colon): 1640 nM; TGI (HT29 colon): > 33300 nM; GI50 (IGROV1 ovarian): 1430 nM; TGI (IGROV1 ovarian): > 33300 nM; GI50 (K-562 leukemia): 996 nM; TGI (K-562 leukemia): > 33300 nM; GI50 (KM12 colon): 293 nM; TGI (KM12 colon): > 33300 nM; GI50 (LOX IMVI melanoma): 1510 nM; TGI (LOX IMVI melanoma): 17900 nM; GI50 (M14 melanoma): 1410 nM; TGI (M14 melanoma): 25000 nM; GI50 (MALME-3M melanoma): 2130 nM; TGI (MALME-3M melanoma): > 33300 nM; GI50 (MCF7 breast): 1560 nM; TGI (MCF7 breast): > 33300 nM; GI50 (MDA-MB-231 breast): 2470 nM; TGI (MDA-MB-231 breast): > 33300 nM; GI50 (MDA-MB-435): 2710 nM; TGI (MDA-MB-435): > 33300 nM; GI50 (MOLT-4 leukemia): 1210 nM; TGI (MOLT-4 leukemia): 31100 nM; GI50 (NCI-H226 lung): 1330 nM; TGI (NCI-H226 lung): > 33300 nM; GI50 (NCI-H460 lung): 1210 nM; TGI (NCI-H460 lung): 27300 nM; GI50 (NCI-H522 lung): 1290 nM; TGI (NCI-H522 lung): 16300 nM; GI50 (NCI/ADR-RES ovarian): 2160 nM; TGI (NCI/ADR-RES ovarian): > 33300 nM; GI50 (OVCAR-4 ovarian): 1690 nM; TGI (OVCAR-4 ovarian): > 33300 nM; GI50 (OVCAR-5 ovarian): 4950 nM; TGI (OVCAR-5 ovarian): > 33300 nM; GI50 (OVCAR-8 ovarian): 1800 nM; TGI (OVCAR-8 ovarian): > 33300 nM; GI50 (PC-3 prostate): 1170 nM; TGI (PC-3 prostate): > 33300 nM; GI50 (RPMI-8226 leukemia): 614 nM; TGI (RPMI-8226 leukemia): 2500 nM; GI50 (RXF 393 renal): 775 nM; TGI (RXF 393 renal): 2110 nM; GI50 (SF-268 CNS): 5700 nM; TGI (SF-268 CNS): > 33300 nM; GI50 (SF-295 CNS): 689 nM; TGI (SF-295 CNS): 2550 nM; GI50 (SF-539 CNS): 600 nM; TGI (SF-539 CNS): > 33300 nM; GI50 (SK-MEL-2 melanoma): 1130 nM; TGI (SK-MEL-2 melanoma): 5730 nM; GI50 (SK-MEL-28 melanoma): 3520 nM; TGI (SK-MEL-28 melanoma): > 33300 nM; GI50 (SK-MEL-5 melanoma): 1100 nM; TGI (SK-MEL-5 melanoma): 4720 nM; GI50 (SK-OV-3 ovarian): 7160 nM; TGI (SK-OV-3 ovarian): > 33300 nM; GI50 (SN12C renal): 1260 nM; TGI (SN12C renal): > 33300 nM; GI50 (SNB-19 CNS): 3870 nM; TGI (SNB-19 CNS): > 33300 nM; GI50 (SNB-75 CNS): 1140 nM; TGI (SNB-75 CNS): 13800 nM; GI50 (SR leukemia): 946 nM; TGI (SR leukemia): > 33300 nM; GI50 (SW-620 colon): 2340 nM; TGI (SW-620 colon): > 33300 nM; GI50 (T-47D breast): 908 nM; TGI (T-47D breast): 9030 nM; GI50 (TK-10 renal): 11300 nM; TGI (TK-10 renal): > 33300 nM; GI50 (U251 CNS): 1320 nM; TGI (U251 CNS): > 33300 nM; GI50 (UACC-257 melanoma): 3230 nM; TGI (UACC-257 melanoma): > 33300 nM; GI50 (UACC-62 melanoma): 776 nM; TGI (UACC-62 melanoma): 1970 nM; GI50 (UO-31 renal): 1210 nM; TGI (UO-31 renal): 25100 nM
